{"source": "paper PMC10004634", "about": "(PLOS ONE, 2023)", "test_in_all_cases": "biochemical", "parameters_in_all_cases": "KINOMEscan scanMAX competition binding, DNA-tagged kinases, qPCR read-out, percent control at 300 nM", "key": {"SYK": {"target": "SYK (Homo sapiens, UniProt P43405)"}, "LATS2": {"target": "T1, LATS2 (Homo sapiens, UniProt Q9NRM7)", "T1 sequence (Q9NRM7 1-1088)": "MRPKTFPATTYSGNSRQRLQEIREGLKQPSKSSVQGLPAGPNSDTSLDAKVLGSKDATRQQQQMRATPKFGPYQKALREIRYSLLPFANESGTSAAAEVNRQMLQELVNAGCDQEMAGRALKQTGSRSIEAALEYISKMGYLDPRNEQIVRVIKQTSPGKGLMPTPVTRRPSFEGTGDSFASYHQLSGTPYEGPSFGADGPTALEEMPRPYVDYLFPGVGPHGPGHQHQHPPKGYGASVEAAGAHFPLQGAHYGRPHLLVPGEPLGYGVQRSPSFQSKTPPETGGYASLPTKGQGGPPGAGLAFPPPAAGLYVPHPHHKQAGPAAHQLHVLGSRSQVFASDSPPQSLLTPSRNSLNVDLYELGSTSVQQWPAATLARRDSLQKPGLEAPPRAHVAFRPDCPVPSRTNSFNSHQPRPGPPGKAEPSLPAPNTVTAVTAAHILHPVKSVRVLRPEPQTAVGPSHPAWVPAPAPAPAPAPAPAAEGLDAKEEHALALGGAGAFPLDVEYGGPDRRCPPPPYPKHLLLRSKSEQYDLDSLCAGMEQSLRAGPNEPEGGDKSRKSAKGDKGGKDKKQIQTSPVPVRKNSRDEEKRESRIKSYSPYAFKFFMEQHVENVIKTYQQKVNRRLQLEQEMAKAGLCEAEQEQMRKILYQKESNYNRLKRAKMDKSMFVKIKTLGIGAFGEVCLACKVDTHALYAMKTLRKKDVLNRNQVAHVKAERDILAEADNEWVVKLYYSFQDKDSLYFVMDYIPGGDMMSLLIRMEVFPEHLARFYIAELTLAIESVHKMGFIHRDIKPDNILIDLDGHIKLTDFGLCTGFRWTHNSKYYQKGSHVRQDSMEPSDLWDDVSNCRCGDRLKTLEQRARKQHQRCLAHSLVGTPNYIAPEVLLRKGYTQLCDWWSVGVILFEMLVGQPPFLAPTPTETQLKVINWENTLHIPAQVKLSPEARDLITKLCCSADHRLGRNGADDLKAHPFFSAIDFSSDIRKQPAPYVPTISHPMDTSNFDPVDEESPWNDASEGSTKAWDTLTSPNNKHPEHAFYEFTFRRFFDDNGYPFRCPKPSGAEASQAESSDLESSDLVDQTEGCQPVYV"}, "HIPK4": {"target": "T2, HIPK4 (Homo sapiens, UniProt Q8NE63)", "T2 sequence (Q8NE63 1-616)": "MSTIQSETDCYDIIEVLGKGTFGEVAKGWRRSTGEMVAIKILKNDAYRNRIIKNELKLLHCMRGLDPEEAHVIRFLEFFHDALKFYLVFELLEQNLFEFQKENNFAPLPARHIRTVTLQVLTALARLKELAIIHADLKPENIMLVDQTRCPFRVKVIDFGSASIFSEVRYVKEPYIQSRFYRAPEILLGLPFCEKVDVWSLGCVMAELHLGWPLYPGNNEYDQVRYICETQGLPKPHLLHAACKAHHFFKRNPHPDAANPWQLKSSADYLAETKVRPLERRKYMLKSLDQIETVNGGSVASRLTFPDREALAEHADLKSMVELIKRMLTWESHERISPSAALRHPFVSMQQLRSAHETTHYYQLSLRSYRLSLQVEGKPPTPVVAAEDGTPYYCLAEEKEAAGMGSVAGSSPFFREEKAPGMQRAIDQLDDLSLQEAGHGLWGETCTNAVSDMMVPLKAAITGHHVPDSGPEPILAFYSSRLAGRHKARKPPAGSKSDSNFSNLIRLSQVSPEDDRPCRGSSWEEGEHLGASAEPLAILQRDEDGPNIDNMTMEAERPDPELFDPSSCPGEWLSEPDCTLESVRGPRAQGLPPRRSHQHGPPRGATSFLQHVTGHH"}, "MARK4": {"target": "T3, MARK4 (Homo sapiens, UniProt Q96L34)", "T3 sequence (Q96L34 1-752)": "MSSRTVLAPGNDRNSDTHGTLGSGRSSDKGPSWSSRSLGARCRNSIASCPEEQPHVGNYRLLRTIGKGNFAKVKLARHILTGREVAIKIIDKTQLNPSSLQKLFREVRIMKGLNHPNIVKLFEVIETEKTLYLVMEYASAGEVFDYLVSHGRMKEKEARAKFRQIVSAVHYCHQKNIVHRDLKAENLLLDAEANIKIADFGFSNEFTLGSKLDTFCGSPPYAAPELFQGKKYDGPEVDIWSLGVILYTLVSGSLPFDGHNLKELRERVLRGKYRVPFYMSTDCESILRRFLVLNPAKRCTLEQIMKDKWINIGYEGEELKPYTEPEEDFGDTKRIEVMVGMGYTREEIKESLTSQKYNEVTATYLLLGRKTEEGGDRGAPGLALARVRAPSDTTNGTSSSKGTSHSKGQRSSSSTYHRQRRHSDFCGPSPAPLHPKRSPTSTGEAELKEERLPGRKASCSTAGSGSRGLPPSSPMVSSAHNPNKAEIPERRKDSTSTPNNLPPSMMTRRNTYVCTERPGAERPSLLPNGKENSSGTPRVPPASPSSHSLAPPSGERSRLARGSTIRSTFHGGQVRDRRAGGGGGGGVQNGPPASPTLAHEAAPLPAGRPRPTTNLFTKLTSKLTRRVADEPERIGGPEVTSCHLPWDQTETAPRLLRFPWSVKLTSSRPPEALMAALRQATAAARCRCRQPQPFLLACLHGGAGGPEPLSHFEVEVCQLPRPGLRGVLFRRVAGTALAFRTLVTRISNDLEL"}, "PRKCD": {"target": "PRKCD (Homo sapiens, UniProt Q05655)", "sequence (Q05655 whole entry)": "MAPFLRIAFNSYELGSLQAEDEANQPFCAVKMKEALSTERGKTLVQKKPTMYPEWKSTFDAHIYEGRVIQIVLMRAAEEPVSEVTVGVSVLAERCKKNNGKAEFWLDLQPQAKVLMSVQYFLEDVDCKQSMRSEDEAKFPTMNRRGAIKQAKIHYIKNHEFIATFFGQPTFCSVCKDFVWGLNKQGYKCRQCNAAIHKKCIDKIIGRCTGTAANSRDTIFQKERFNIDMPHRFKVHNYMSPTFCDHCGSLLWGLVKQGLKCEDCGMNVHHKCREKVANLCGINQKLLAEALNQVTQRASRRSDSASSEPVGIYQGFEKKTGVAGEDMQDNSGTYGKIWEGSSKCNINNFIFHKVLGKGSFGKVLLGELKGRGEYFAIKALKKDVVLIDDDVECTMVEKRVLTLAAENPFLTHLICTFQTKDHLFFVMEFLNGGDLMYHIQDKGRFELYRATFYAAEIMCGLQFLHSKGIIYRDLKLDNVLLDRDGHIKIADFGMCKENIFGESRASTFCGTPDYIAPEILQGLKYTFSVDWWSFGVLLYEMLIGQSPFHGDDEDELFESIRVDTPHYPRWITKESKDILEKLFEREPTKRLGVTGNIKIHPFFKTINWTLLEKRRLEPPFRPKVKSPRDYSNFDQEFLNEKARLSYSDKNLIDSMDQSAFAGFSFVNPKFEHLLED"}, "[1]": {"settings": "read-out: Percent control / Acalabrutinib"}, "[2]": {"settings": "read-out: Percent control / Ibrutinib"}, "[3]": {"settings": "read-out: Percent control / Tirabrutinib"}, "[4]": {"settings": "read-out: Percent control / Zanubrutinib"}}, "note": "Read-outs that look alike come from different tables or passages of the source.", "data": [{"smiles": "CC#CC(=O)N1CCC[C@H]1c1nc(-c2ccc(C(=O)Nc3ccccn3)cc2)c2c(N)nccn12", "note": "[Acalabrutinib]", "values": [{"measurement": "remaining binding at 0.3 µM", "setting": "SYK; [1]", "value": 89, "unit": "%"}, {"measurement": "remaining binding at 0.3 µM", "setting": "LATS2; [1]", "value": 90, "unit": "%"}, {"measurement": "remaining binding at 0.3 µM", "setting": "HIPK4; [1]", "value": 85, "unit": "%"}]}, {"smiles": "C=CC(=O)N1CCC[C@@H](n2nc(-c3ccc(Oc4ccccc4)cc3)c3c(N)ncnc32)C1", "note": "[Ibrutinib]", "values": [{"measurement": "remaining binding at 0.3 µM", "setting": "MARK4; [2]", "value": 96, "unit": "%"}, {"measurement": "remaining binding at 0.3 µM", "setting": "PRKCD; [2]", "value": 90, "unit": "%"}, {"measurement": "remaining binding at 0.3 µM", "setting": "HIPK4; [2]", "value": 98, "unit": "%"}]}, {"smiles": "CC#CC(=O)N1CC[C@@H](n2c(=O)n(-c3ccc(Oc4ccccc4)cc3)c3c(N)ncnc32)C1", "note": "[Tirabrutinib]", "values": [{"measurement": "remaining binding at 0.3 µM", "setting": "MARK4; [3]", "value": 94, "unit": "%"}, {"measurement": "remaining binding at 0.3 µM", "setting": "PRKCD; [3]", "value": 90, "unit": "%"}, {"measurement": "remaining binding at 0.3 µM", "setting": "SYK; [3]", "value": 93, "unit": "%"}, {"measurement": "remaining binding at 0.3 µM", "setting": "LATS2; [3]", "value": 92, "unit": "%"}]}, {"smiles": "C=CC(=O)N1CCC([C@@H]2CCNc3c(C(N)=O)c(-c4ccc(Oc5ccccc5)cc4)nn32)CC1", "note": "[Zanubrutinib]", "values": [{"measurement": "remaining binding at 0.3 µM", "setting": "MARK4; [4]", "value": 83, "unit": "%"}, {"measurement": "remaining binding at 0.3 µM", "setting": "PRKCD; [4]", "value": 83, "unit": "%"}, {"measurement": "remaining binding at 0.3 µM", "setting": "SYK; [4]", "value": 81, "unit": "%"}, {"measurement": "remaining binding at 0.3 µM", "setting": "LATS2; [4]", "value": 82, "unit": "%"}, {"measurement": "remaining binding at 0.3 µM", "setting": "HIPK4; [4]", "value": 87, "unit": "%"}]}]}
